Measured values reported in patent US5786332A, “Cytokine restraining agents and methods of use in pathologies and conditions associated with altered cytokine levels” (Trega Biosciences, Inc., priority 1995, dated 1998).

System: Wistar rats
Assay: LPS-induced temperature increase (fever)
Type: in vivo
Settings: 6 hr following LPS
Protocol: Male Wistar rats (45-75 days old) were placed in a temperature controlled room held at 26° C., which is thermoneutral for the normal body temperature of rats, and were maintained in the room with free access to food and water for 24 hr prior to testing. On the morning of the study, rats were marked for identification and weighed. The temperature of each rat was determined by placing the animal in a restraining cage designed to minimize stress and inserting a temperature probe (YSI probe #402) 3-5 cm into the animal's rectum. The temperature was recorded 15 sec after the reading stabilized. Measurements were repeated 1 hr later to establish a baseline temperature for each rat.
After the baseline temperatures were established, rats were injected IP with saline, IL-1β or LPS endotoxin.
Rats then were injected IP with either saline (control) or various concentrations of EX-2, EX-3, or EX-4 (treated). The temperature of the rats was measured every hr for 6 hr and the inhibition by EX-2, EX-3, or EX-4 of the rise in temperature due to IL-1β or LPS was determined.
In addition, treatment with 50 or 150 μg/kg EX-2 inhibited LPS-induced fever by 45% or 52%, respectively, when measured 6 hr following LPS injection. Furthermore, treatment with 150 μg/kg EX-3 or EX-4 inhibited LPS-induced fever by 57% and 52%, respectively (Table II).

With “Ac-Nle-Gln-His-(D)Phe-Arg-(D)Trp-Gly-NH2 [EX-2]” the “Reduction in LPS-induced Fever” value (50 μg/kg IP) was 45% and the “Reduction in LPS-induced Fever” value (150 μg/kg IP) was 52%.
